{"source": "patent US6638973B2", "about": "“Taxane formulations” (FSU Research Foundation, Inc., priority 2000, dated 2003)", "test_system": "HCT116 cells", "test": "In vitro cytotoxicity measured by the cell colony formation assay", "assay_type": "cell-based", "settings": "colonies counted after 7 days, read-out: IN VITRO ID 50 (nm) HCT116", "experimental": "(§1) Four hundred cells (HCT116) were plated in 60 mm Petri dishes containing 2.7 mL of medium (modified McCoy's 5a medium containing 10% fetal bovine serum and 100 units/mL penicillin and 100 µg/mL streptomycin). The cells were incubated in a CO2 incubator at 37° C. for 5 h for attachment to the bottom of Petri dishes. The compounds identified in Example 2 were made up fresh in medium at ten times the final concentration, and then 0.3 mL of this stock solution was added to the 2.7 mL of medium in the dish. The cells were then incubated with drugs for 72 h at 37° C. At the end of incubation the drug-containing media were decanted, the dishes were rinsed with 4 mL of Hank's Balance Salt Solution (HBSS), 5 mL of fresh medium was added, and the dishes were returned to the incubator for colony formation. The cell colonies were counted using a colony counter after incubation for 7 days.\nas §1, with “Example 7” for “Example 2”\nas §1, with “Example 22” for “Example 2”\nas §1, with “Example 27” for “Example 2”\nFour hundred cells (HCT116) were plated in 60 mm Petri dishes containing 2.7 mL of medium (modified McCoy's 5a medium containing 10% fetal bovine serum and 100 units/mL penicillin and 100 µg/mL streptomycin). The cells were incubated in a CO2 incubator at 37° C. for 5 h for attachment to the bottom of Petri dishes. […]", "key": {"[1]": {"settings": "HCT116 colony formation, 72 h drug incubation, Example 10, C-10 ester/C-7 hydroxy taxanes"}, "[2]": {"settings": "HCT116 cells, 72 h incubation with drug, ID50 = drug concentration producing 50% inhibition of colony formation"}, "[3]": {"settings": "HCT116 colony formation, 72 h drug incubation, Example 5, C-7 ester/C-10 hydroxy taxanes"}, "[4]": {"settings": "HCT116 cells, colony formation, 72 h incubation with drug, ID50 = drug concentration producing 50% inhibition of colony formation"}, "[5]": {"settings": "HCT116 cells, 72 h drug incubation, ID50 = drug concentration producing 50% inhibition of colony formation"}}, "note": "Where two headings read alike, the source gives them in different places.", "data": [{"smiles": "C/C=C/C(=O)O[C@H]1C(=O)[C@@]2(C)C([C@H](OC(=O)c3ccccc3)[C@]3(O)C[C@H](OC(=O)[C@H](O)[C@H](C=C(C)C)NC(=O)OC(C)(C)C)C(C)=C1C3(C)C)[C@]1(OC(C)=O)CO[C@@H]1C[C@@H]2O", "note": "(stereo partly drawn) [Compound 2332]", "values": [{"measurement": "IC50", "setting": "[1]", "result": "< 1", "unit": "nM"}]}, {"smiles": "CCOC(=O)O[C@H]1C(=O)[C@@]2(C)C([C@H](OC(=O)c3ccccc3)[C@]3(O)C[C@H](OC(=O)[C@H](O)[C@@H](NC(=O)OC(C)(C)C)c4ccc([N+](=O)[O-])cc4)C(C)=C1C3(C)C)[C@]1(OC(C)=O)CO[C@@H]1C[C@@H]2O", "note": "(stereo partly drawn) [Compound 1866]", "values": [{"measurement": "IC50", "setting": "[2]", "result": "< 1", "unit": "nM"}]}, {"smiles": "CCCC(=O)O[C@H]1C[C@H]2OC[C@@]2(OC(C)=O)C2[C@H](OC(=O)c3ccccc3)[C@]3(O)C[C@H](OC(=O)[C@H](O)[C@@H](NC(=O)C=C(C)C)c4cccs4)C(C)=C([C@@H](O)C(=O)[C@@]21C)C3(C)C", "note": "(stereo partly drawn) [Compound 4283]", "values": [{"measurement": "IC50", "setting": "[3]", "result": "< 1", "unit": "nM"}]}, {"smiles": "CCNC(=O)O[C@H]1C(=O)[C@@]2(C)C([C@H](OC(=O)c3ccccc3)[C@]3(O)C[C@H](OC(=O)[C@H](O)[C@H](C=C(C)C)NC(=O)OC(C)(C)C)C(C)=C1C3(C)C)[C@]1(OC(C)=O)CO[C@@H]1C[C@@H]2O", "note": "(stereo partly drawn) [Compound 2686]", "values": [{"measurement": "IC50", "setting": "[4]", "result": "< 1", "unit": "nM"}]}, {"smiles": "CCOC(=O)O[C@H]1C(=O)[C@@]2(C)C([C@H](OC(=O)c3ccccc3)[C@]3(O)C[C@H](OC(=O)[C@H](O)[C@H](C=C(C)C)NC(=O)OCC(C)C)C(C)=C1C3(C)C)[C@]1(OC(C)=O)CO[C@@H]1C[C@@H]2O", "note": "(stereo partly drawn) [Compound 5155]", "values": [{"measurement": "IC50", "setting": "[2]", "result": "< 10", "unit": "nM"}]}, {"smiles": "CC(=O)O[C@@]12CO[C@@H]1C[C@H](OC(=O)COc1ccccc1)[C@@]1(C)C(=O)[C@H](O)C3=C(C)[C@@H](OC(=O)[C@H](O)[C@@H](NC(=O)OC(C)(C)C)c4ccco4)C[C@@](O)([C@@H](OC(=O)c4ccccc4)C12)C3(C)C", "note": "(stereo partly drawn) [Compound 5616]", "values": [{"measurement": "IC50", "setting": "HCT116 colony formation, 72 h drug incubation, Example 15, C-7 substituted acetate/C-10 hydroxy taxanes", "result": "< 1", "unit": "nM"}]}, {"smiles": "CCCC(=O)O[C@H]1C(=O)[C@@]2(C)C([C@H](OC(=O)c3ccccc3)[C@]3(O)C[C@H](OC(=O)[C@H](O)[C@@H](NC(=O)OC(C)(C)C)c4ccco4)C(C)=C1C3(C)C)[C@]1(OC(C)=O)CO[C@@H]1C[C@@H]2O", "note": "(stereo partly drawn) [Compound 0983]", "values": [{"measurement": "IC50", "setting": "[1]", "result": "< 1", "unit": "nM"}]}, {"smiles": "CCC(=O)O[C@H]1C(=O)[C@@]2(C)C([C@H](OC(=O)c3ccccc3)[C@]3(O)C[C@H](OC(=O)[C@H](O)[C@@H](NC(=O)OC(C)(C)C)c4ccsc4)C(C)=C1C3(C)C)[C@]1(OC(C)=O)CO[C@@H]1C[C@@H]2O", "note": "(stereo partly drawn) [Compound 0562]", "values": [{"measurement": "IC50", "setting": "[1]", "result": "< 1", "unit": "nM"}]}, {"smiles": "CCCC(=O)N[C@@H](c1ccco1)[C@@H](O)C(=O)O[C@H]1C[C@@]2(O)[C@@H](OC(=O)c3ccccc3)C3[C@](C)(C(=O)[C@H](OC(=O)CCC)C(=C1C)C2(C)C)[C@@H](O)C[C@H]1OC[C@@]31OC(C)=O", "note": "(stereo partly drawn) [Compound 3222]", "values": [{"measurement": "IC50", "setting": "[1]", "result": "< 1", "unit": "nM"}]}, {"smiles": "CC(=O)O[C@@]12CO[C@@H]1C[C@H](OC(=O)OCc1ccccc1)[C@@]1(C)C(=O)[C@H](O)C3=C(C)[C@@H](OC(=O)[C@H](O)[C@@H](NC(=O)C=C(C)C)c4ccco4)C[C@@](O)([C@@H](OC(=O)c4ccccc4)C12)C3(C)C", "note": "(stereo partly drawn) [Compound 5466]", "values": [{"measurement": "IC50", "setting": "[2]", "result": "< 1", "unit": "nM"}]}, {"smiles": "CCOC(=O)O[C@H]1C(=O)[C@@]2(C)C([C@H](OC(=O)c3ccccc3)[C@]3(O)C[C@H](OC(=O)[C@H](O)[C@@H](NC(=O)c4ccccn4)c4cccs4)C(C)=C1C3(C)C)[C@]1(OC(C)=O)CO[C@@H]1C[C@@H]2O", "note": "(stereo partly drawn) [Compound 3433]", "values": [{"measurement": "IC50", "setting": "[2]", "result": 22.3, "unit": "nM"}]}, {"smiles": "CCNC(=O)O[C@H]1C[C@H]2OC[C@@]2(OC(C)=O)C2[C@H](OC(=O)c3ccccc3)[C@]3(O)C[C@H](OC(=O)[C@H](O)[C@@H](NC(=O)OC(C)(C)C)c4ccco4)C(C)=C([C@@H](O)C(=O)[C@@]21C)C3(C)C", "note": "(stereo partly drawn) [Compound 6696]", "values": [{"measurement": "IC50", "setting": "[5]", "result": "< 1", "unit": "nM"}]}, {"smiles": "CC(=O)O[C@@]12CO[C@@H]1C[C@H](O)[C@@]1(C)C(=O)[C@H](OC(=O)C(C)C)C3=C(C)[C@@H](OC(=O)[C@H](O)[C@@H](NC(=O)OC(C)(C)C)c4ccoc4)C[C@@](O)([C@@H](OC(=O)c4ccccc4)C12)C3(C)C", "note": "(stereo partly drawn) [Compound 2273]", "values": [{"measurement": "IC50", "setting": "[1]", "result": "< 1", "unit": "nM"}]}, {"smiles": "CCOC(=O)O[C@H]1C(=O)[C@@]2(C)C([C@H](OC(=O)c3ccccc3)[C@]3(O)C[C@H](OC(=O)[C@H](O)[C@@H](NC(=O)OC(C)C)c4cccs4)C(C)=C1C3(C)C)[C@]1(OC(C)=O)CO[C@@H]1C[C@@H]2O", "note": "(stereo partly drawn) [Compound 2999]", "values": [{"measurement": "IC50", "setting": "[2]", "result": "< 1", "unit": "nM"}]}, {"smiles": "CCC(=O)O[C@H]1C(=O)[C@@]2(C)C([C@H](OC(=O)c3ccccc3)[C@]3(O)C[C@H](OC(=O)[C@H](O)[C@@H](NC(=O)c4cccnc4)c4cccs4)C(C)=C1C3(C)C)[C@]1(OC(C)=O)CO[C@@H]1C[C@@H]2O", "note": "(stereo partly drawn) [Compound 4121]", "values": [{"measurement": "IC50", "setting": "[1]", "result": "< 10", "unit": "nM"}]}, {"smiles": "CCCC(=O)O[C@H]1C[C@H]2OC[C@@]2(OC(C)=O)C2[C@H](OC(=O)c3ccccc3)[C@]3(O)C[C@H](OC(=O)[C@H](O)[C@@H](NC(=O)c4cccs4)c4cccs4)C(C)=C([C@@H](O)C(=O)[C@@]21C)C3(C)C", "note": "(stereo partly drawn) [Compound 4388]", "values": [{"measurement": "IC50", "setting": "[3]", "result": "< 1", "unit": "nM"}]}, {"smiles": "CC(=O)O[C@@]12CO[C@@H]1C[C@H](O)[C@@]1(C)C(=O)[C@H](OC(=O)C3CC3)C3=C(C)[C@@H](OC(=O)[C@H](O)[C@@H](NC(=O)c4ccccc4)c4cccs4)C[C@@](O)([C@@H](OC(=O)c4ccccc4)C12)C3(C)C", "note": "(stereo partly drawn) [Compound 0919]", "values": [{"measurement": "IC50", "setting": "[1]", "result": "< 1", "unit": "nM"}]}, {"smiles": "CC(=O)OC12COC1CC(O)C1(C)C(=O)C(OC(=O)c3cccs3)C3=C(C)C(OC(=O)C(O)C(NC(=O)OC(C)(C)C)c4ccsc4)CC(O)(C(OC(=O)c4ccccc4)C21)C3(C)C", "note": "(stereo not drawn) [Compound 1939]", "values": [{"measurement": "IC50", "setting": "[1]", "result": "< 1", "unit": "nM"}]}, {"smiles": "CCNC(=O)O[C@H]1C[C@H]2OC[C@@]2(OC(C)=O)C2[C@H](OC(=O)c3ccccc3)[C@]3(O)C[C@H](OC(=O)[C@H](O)[C@@H](NC(=O)C=C(C)C)c4ccco4)C(C)=C([C@@H](O)C(=O)[C@@]21C)C3(C)C", "note": "(stereo partly drawn) [Compound 5588]", "values": [{"measurement": "IC50", "setting": "[5]", "result": "< 1", "unit": "nM"}]}, {"smiles": "C/C=C/C(=O)N[C@@H](c1cccs1)[C@@H](O)C(=O)O[C@H]1C[C@@]2(O)[C@@H](OC(=O)c3ccccc3)C3[C@](C)(C(=O)[C@H](OC(=O)CC)C(=C1C)C2(C)C)[C@@H](O)C[C@H]1OC[C@@]31OC(C)=O", "note": "(stereo partly drawn) [Compound 3494]", "values": [{"measurement": "IC50", "setting": "[1]", "result": "< 1", "unit": "nM"}]}, {"smiles": "CCCC(=O)O[C@H]1C(=O)[C@@]2(C)C([C@H](OC(=O)c3ccccc3)[C@]3(O)C[C@H](OC(=O)[C@H](O)[C@@H](NC(=O)OCC(C)C)c4cccs4)C(C)=C1C3(C)C)[C@]1(OC(C)=O)CO[C@@H]1C[C@@H]2O", "note": "(stereo partly drawn) [Compound 3265]", "values": [{"measurement": "IC50", "setting": "[1]", "result": "< 10", "unit": "nM"}]}, {"smiles": "CC(=O)OC12COC1CC(O)C1(C)C(=O)C(OC(=O)c3ccco3)C3=C(C)C(OC(=O)C(O)C(NC(=O)OC(C)(C)C)c4cccnc4)CC(O)(C(OC(=O)c4ccccc4)C21)C3(C)C", "note": "(stereo not drawn) [Compound 2124]", "values": [{"measurement": "IC50", "setting": "[1]", "result": "< 10", "unit": "nM"}]}, {"smiles": "CCOC(=O)O[C@H]1C(=O)[C@@]2(C)C([C@H](OC(=O)c3ccccc3)[C@]3(O)C[C@H](OC(=O)[C@H](O)[C@@H](NC(=O)OCC(C)C)c4cccs4)C(C)=C1C3(C)C)[C@]1(OC(C)=O)CO[C@@H]1C[C@@H]2O", "note": "(stereo partly drawn) [Compound 3003]", "values": [{"measurement": "IC50", "setting": "[2]", "result": "< 10", "unit": "nM"}]}, {"smiles": "CCNC(=O)O[C@H]1C(=O)[C@@]2(C)C([C@H](OC(=O)c3ccccc3)[C@]3(O)C[C@H](OC(=O)[C@H](O)[C@@H](NC(=O)OC(C)(C)C)c4ccccc4)C(C)=C1C3(C)C)[C@]1(OC(C)=O)CO[C@@H]1C[C@@H]2O", "note": "(stereo partly drawn) [Compound 2640]", "values": [{"measurement": "IC50", "setting": "[4]", "result": "< 1", "unit": "nM"}]}]}
